Test results reported in publication PMC6604316 (Virology Journal, 2019).
Where two headings read alike, the source gives them in different places.

Tests used:
[1] = test system: NA protein of LPAI H7N9 virus, 292 K; conditions: cited from earlier work
[2] = biological target: NA of A/Texas/12/2007 (H3N2 119E) (Influenza A virus (A/Texas/12/2007(H3N2)), UniProt D1FVK3); assay: biochemical; assay type: biochemical

Row | Molecule | fold increase in the IC50 [1] | IC50 [2] [nM] | IC50 ([2]; read-out: Mean IC50 (nM) ± SD) [nM]
1 | CC(=O)N[C@H]1[C@H]([C@H](O)[C@H](O)CO)OC(C(=O)O)=C[C@@H]1N=C(N)N [Zanamivir, zanamivir] | 67 fold | 1.71 ± 0.63 | 
2 | oseltamivir carboxylate | more than 1000 fold |  | 0.12 ± 0.01
